Data reported in US11884647B2, “Compounds and methods for targeting pathogenic blood vessels” (THE REGENTS OF THE UNIVERSITY OF CALIFORNIA, priority 2019, dated 2024).

Test system: tumor endothelial cells (LL/2 lung cancer tumor)
Experiment: Lung LL2 ex vivo model of tumor angiogenesis
Assay type: cell-based, mouse
Conditions: for cytotoxicity at 20 µM / cytotoxicity at 40 µM / cytotoxicity at 10 µM: Mus musculus, Endothelial cell, 48 h, read-out: Cell death; for Cell death: Lung LL2 ex vivo, drug treatment two days
Method in brief: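 Mouse LL2 tumor fragments (~0.5×0.5×0.3 mm) embedded in Matrigel and grown in endothelial growth medium at 37° C until endothelial outgrowth (about 4 days) before drug treatment. About 48 h after drug addition, stained 10 min with fluorescein diacetate/propidium iodide; live (green) and dead (red) cells imaged at 2× with fixed channel settings.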

Row | Structure (SMILES) | cytotoxicity at 20 µM [%] | cytotoxicity at 40 µM [%] | also measured
1 | CCCCCCCCCCCCOc1ccc(S(=O)(=O)c2cnc3ccc([S+](C)[O-])cc3c2N2CCC(N3CCC(N4CCN(C)CC4)CC3)CC2)cc1F (stereo not drawn) [compound 370, 3-((4-(dodecyloxy)-3-fluorophenyl)sulfonyl)-4-(4-(4-methylpiperazin-1-yl)-[1,4′-bipiperidin]-1′-yl)-6-(methylsulfinyl)quinoline] | 20 |  | 
2 | COc1ccc(S(=O)(=O)c2cnc3ccc(C(=O)N(C)C)cc3c2N2CCC(N3CCCCC3)CC2)cc1 [compound 331, 4-([1,4′-bipiperidin]-1′-yl)-3-((4-methoxyphenyl)sulfonyl)-N,N-dimethylquinoline-6-carboxamide] |  | 10 | 
3 | CCCCOc1ccc(S(=O)(=O)c2cnc3ccc(SC)cc3c2N2CCC(=O)N(C)CC2)cc1 [compound 357, 1-(3-((4-butoxyphenyl)sulfonyl)-6-(methylthio)quinolin-4-yl)-4-methyl-1,4-diazepan-5-one] |  |  | Cell death (Conc. 40 μm): 0%
4 | CCCCOc1ccc(S(=O)(=O)c2cnc3ccc(SC)cc3c2N2CCC(N3CCC(O)(c4ccccc4)CC3)CC2)cc1 [compound 232, 1′-(3-((4-butoxyphenyl)sulfonyl)-6-(methylthio)quinolin-4-yl)-4-phenyl-[1,4′-bipiperidin]-4-ol] |  | 10 | 
5 | CCc1ccc(S(=O)(=O)c2cnc3ccc(OC(F)(F)F)cc3c2-n2cnnn2)cc1 [compound 125, 3-((4-ethylphenyl)sulfonyl)-4-(1H-tetrazol-1-yl)-6-(trifluoromethoxy)quinoline] |  |  | Cell death (Conc. 20 μm): 10%
6 | CCc1ccc(S(=O)(=O)c2cnc3ccc(OC(F)(F)F)cc3c2NN2CCCCC2)cc1 [compound 105, 3-((4-ethylphenyl)sulfonyl)-N-(piperidin-1-yl)-6-(trifluoromethoxy)quinolin-4-amine] | 0 |  | 
7 | CCCCCCCCCCOc1ccc(S(=O)(=O)c2cnc3ccc([S+](C)[O-])cc3c2N2CCC(N3CCC(N4CCN(C)CC4)CC3)CC2)cc1 (stereo not drawn) [compound 285, 3-((4-(decyloxy)phenyl)sulfonyl)-4-(4-(4-methylpiperazin-1-yl)-[1,4′-bipiperidin]-1′-yl)-6-(methylsulfinyl)quinoline] |  |  | cytotoxicity at 10 µM: 60%
8 | COc1ccc(S(=O)(=O)c2cnc3ccc([S+](C)[O-])cc3c2NN2CCN(C)CC2)cc1 (stereo not drawn) [compound 227, 3-((4-methoxyphenyl)sulfonyl)-N-(4-methylpiperazin-1-yl)-6-(methylsulfinyl)quinolin-4-amine] |  | 10 | 
9 | COc1ccc(S(=O)(=O)c2cnc3cc(OC)c(OC)cc3c2N2CCCN(CCO)CC2)cc1 [compound 323, 2-(4-(6,7-dimethoxy-3-((4-methoxyphenyl)sulfonyl)quinolin-4-yl)-1,4-diazepan-1-yl)ethan-1-ol] |  | 30 | 
10 | CCCCCCCOc1ccc(S(=O)(=O)c2cnc3ccc([S+](C)[O-])cc3c2N2CCN(CCN3CCCCC3)CC2)cc1 (stereo not drawn) [compound 282, 3-((4-(heptyloxy)phenyl)sulfonyl)-6-(methylsulfinyl)-4-(4-(2-(piperidin-1-yl)ethyl)piperazin-1-yl)quinoline] |  |  | cytotoxicity at 10 µM: 10%
11 | CCCCCCCCCCCCCCCCOc1ccc(S(=O)(=O)c2cnc3ccc([S+](C)[O-])cc3c2N2CCC(N3CCC(N4CCCC(O)C4)CC3)CC2)cc1 (stereo not drawn) [compound 378, 1″-(3-((4-(hexadecyloxy)phenyl)sulfonyl)-6-(methylsulfinyl)quinolin-4-yl)-[1,4′:1′,4″- terpiperidin]-3-ol] | 30 |  | 
12 | CCCCCCCCCCCCCCOc1ccc(S(=O)(=O)c2cnc3ccc([S+](C)[O-])cc3c2N2CCC(N3CCN(CCO)CC3)CC2)cc1F (stereo not drawn) [compound 365, 2-(4-(1-(3-((3-fluoro-4-(tetradecyloxy)phenyl)sulfonyl)-6-(methylsulfinyl)quinolin-4-yl)piperidin-4-yl)piperazin-1-yl)ethanol] | 20 |  | 
